Experimental findings from patent US6875759B1, “Substituted guanidines and the use thereof” (Kadmus Pharmaceuticals, priority 1999, dated 2005) are described below.

Data set [1] relates to human breast (HS578-T) cancer cells. The data set is described as follows: Mitochondrial membrane depolarization, JC-1 flow cytometry, breast cancer cells. Type of data set: cell-based. Particulars: 25 μM, five hours following drug exposure. As to the method:
FIGS. 5A-5C illustrate the effects of the compound of Example 8 on human breast cancer cells (HS578-T). Mitochondrial membrane depolarization was assessed by flow cytometry as measured by the fluorescence of cation, JC-1. Cells were exposed to 25 μM of the compound and fluorescence measured at: 0 hours (FIG. 5A), 2 hours (FIG. 5B) and 5 hours (FIG. 5C).
Mitochondrial membrane depolarization is an early event in apoptosis. […] These early changes in mitochondrial function can be detected using a fluorescent cation, JC-1, that emits a red color when sequestered in the mitochondria of healthy cells, or a green color when localized to the cytoplasm.
Human breast (HS578-T) and prostate (DU145) cancer cells were exposed to 25 μM of the compound of Example 8 for varying lengths of times. Both cell lines lost the capacity to sequester JC-1 in the mitochondrial compartment as indicated by a time-dependent increase in green vs. red fluorescence (FIGS. 5A-5F). In an attempt to better quantitate the results of these experiments, the scans were divided into quadrants. At time 0, greater than 90% of the dye was localized in the mitochondria in both breast and prostate cancer cells. By five hours following drug exposure, the mitochondria from the prostate and breast cells contained only 33% and 22% of the dye, respectively.
(In flow cytometry, cells or beads pass a laser one at a time.)

For data set [2], the system named is breast cancer cell line HS578T. The data set is described as follows: In vitro cytotoxicity, MTS assay, breast cancer cells. Type of data set: cell-based, human. Conditions: 7 days exposure, dose causing death to 50% of cells, read-out: Cell Survival ED 50 Breast. As to the method:
(§1) In these experiments, cells were seeded at 400 cells per well 24 hours prior to addition of the test compound. Cells were grown at 37° C. in a humidified atmosphere of 95% air, 5% CO2 for 7 days with daily media changes. Cytotoxicity was assessed using the CellTiter 96 Aqueous Proliferation Assay (Promega, Madison, Wis.).

Data set [3] relates to DU145 prostate carcinoma xenografts. The data set is described as follows: Anti-tumor activity in athymic mice bearing DU145 prostate carcinoma. Particulars: male nude mice; 12.5 mg/kg/d i.p. daily for two weeks; FIG. 3; 12.5 mg/kg/day. Type of data set: in vivo, mouse. How it is done: FIG. 3 is a graph showing the effect of the compound of Example 8, at a dose of zero mg/kg (filled circles) and at a dose of 12.5 mg/kg (open circles), on human prostate cancer xenographs in BALB/C/NU mice.
DU145 tumor cells were injected subcutaneously into the flank of male nude mice (day 0). Palpable tumors develop within 14 days at which time the animals were treated for two weeks with daily intraperitoneal injections of either the compound of Example 8 or the control vehicle. Tumors were measured every two days and volume of tumor was calculated using the formula: Tumor volume=length×[…] At the end of the study, tumors in control mice had nearly tripled in size. […] Mechanism of Action

For data set [4], the system named is normal human endothelial cells (AH-9). The data set is described as follows: In vitro cytotoxicity, MTS assay, normal endothelial cells. Particulars: AH-9 normal endothelial cells; separate experiment (FIG. 1); seven days; read-out: EC50 cytotoxic activity. Type of data set: cell-based. As to the method: FIG. 1 is a graph which compares the effects of the compound of Example 8 on normal human endothelial cells (AH-9) and human prostate cancer cells (DU145). Cells were exposed to the compound for seven days at the concentrations indicated. Cytotoxicity was assessed using the MTS assay.
In a separate experiment (FIG. 1), normal human endothelial cells (AH-9) and human prostate cancer cells (DU145) were exposed to increasing concentrations of the compound of Example 8 for seven days.

Data set [5] has as its system pancreas cancer cell line HS766T. The data set is described as follows: In vitro cytotoxicity, MTS assay, pancreas cancer cells. Type of data set: cell-based, human. Conditions: 7 days exposure, dose causing death to 50% of cells, read-out: Cell Survival ED 50 Pancreas. How it is done: as §1
Background: Tetrazolium assays rely on reduction of a dye to a coloured formazan, in cell work by metabolically active cells.

“Also recorded” adds a separate entry of the source.

Turning to `Cc1ccc(N=C(Nc2ccc(C)cc2)N2CCN(C/C=C/c3ccccc3)CC2)cc1` [Example 8, 1-[(N,N′-Di-p-tolyl)amidino]-(trans-1′-cinnamyl)piperizine], in data set [1], the “JC-1 dye contained in mitochondria” value was found to be 22%. Further, the EC50 in data set [2] worked out at 2300 nM; in data set [4], 95000 nM; in data set [5], 1800 nM. In addition, the “tumor growth in xenograft (in words)” value in data set [3] is given as “active; also recorded: failed to grow”.
